Measured values as given in patent publication US7122528B2, “Use of 5-substituted nucleosides and/or prodrugs thereof in the resistance-free treatment of infectious diseases” (RESPROTECT GmbH, priority 2001, dated 2006).
Read-outs that look alike come from different tables or passages of the source.

Legend:
[1] = test system: E. coli J53 (RP4) strains; assay: Determination of minimal inhibitory concentrations (MIC) of Kanamycin or Amikacin on starter, adapted and BVDU-pretreated strains; format: cell-based, Escherichia coli; details: for MIC: Escherichia coli
Description: In order to determine the minimal inhibitory concentrations (MIC), precultures were used initially for which antibiotic-free culture medium had been inoculated directly from frozen glycerine cultures. […] However even higher antibiotic concentrations still led to the growth of the inoculum. However, the growth inhibition prevented a larger cell density in the bacteria culture being reached.
In order to test the stability of the specific resistance features of the E. coli strains, the MIC determination was repeated. The already tested precultures were again absorbed for this purpose in antibiotic-free culture medium and tested for their Kanamycin resistance. The resistance spectra of the starter strain and of the strain adapted to 64 μg/ml remained unchanged. […] The results are illustrated in FIG. 4.
The results can be deduced from FIG. 6.
(§1) In order to determine the minimal inhibitory concentrations (MIC) of Kanamycin or Amikacin relative to aminoglycoside/BVDU-pretreated E coli J53 (RP4) strains, standard precultures were used which contained no additives in the culture medium (recovery phase). In addition, it was tested in comparative experiments to what extent the addition of BVDU to the antibiotic-free precultures changes the resistant spectrum of the strains.

[2] = test system: Escherichia coli J53 (RP4); assay: Growth tests: adaptation (resistance development) to aminoglycoside antibiotic with or without BVDU; format: cell-based
Description: Escherichia coli J53 was used as Gram-negative model organism in order to test the effectiveness of BVDU. This organism carries the naturally occurring plasmid RP4, on which resistances to Ampicillin, Tetracycline and Kanamycin are encoded.
The results are illustrated in FIGS. 1 and 2.

[3] = test system: aminoglycoside/BVDU-pretreated E coli J53 (RP4) strains; assay: BVDU conditioned growth inhibition after aminoglycoside/BVDU pretreatment; format: cell-based, Escherichia coli
Description: as §1
In comparison therewith, the growth without antibiotic in the additive-free preculture corresponded to that of the untreated E. coli strain. The results are illustrated in FIGS. 7 and 8.

Leidshmania donovanii = assay: Prevention of methotrexate resistance development in Leishmania by gradual increase in MTX concentration; format: cell-based
Description: Prevention of resistance development in Zooflagellates (Leishmania) by the simultaneous administration of the anti-recombinogenic 5-substituted nucleoside (E)-5-(2-bromovinyl)2′-deoxyuridines (BVDU) with methotrexate.
Methotrexate (MTX) resistant cells of Leidshmania donovanii were produced by gradual increase in the MTX concentrations of 5 to 10, of 10 to 50 and of 50 to 100 μm MTX. 5×10^6 cells/ml respectively were seeded in the growth medium. The cells were diluted again to 5×10^6 cells/ml for each new batch. The cells were then constantly subjected to the next higher MTX concentration when the cell division rate of the MTX-subjected cells had stabilised to the control level. […] The result of this test can be seen in a simplified version in FIGS. 9 and 10.

[4] = 1 μg/ml BVDU added simultaneously with MTX

SMILES: NC[C@H]1O[C@H](O[C@H]2[C@H](O)[C@@H](O[C@H]3O[C@H](CO)[C@@H](O)[C@H](N)[C@H]3O)[C@H](N)C[C@@H]2N)[C@H](O)[C@@H](O)[C@@H]1O [Kanamycin]
- MIC ([1]; strain pretreated with 64 μg/ml Kanamycin + 1 μg/ml BVDU, repeated MIC determination, read-out: Kanamycin concentration from which growth of the inoculum was completely prevented (MIC)): 32 µg/mL
- MIC ([1]; strain which had become resistant to 64 μg/ml Kanamycin, read-out: MIC of Kanamycin): 128 µg/mL
- Kanamycin concentration from which growth inhibition was shown ([1]; strain grown in the presence of 1 μg/ml BVDU (no resistance to 64 μg/ml Kanamycin), first MIC determination): 16 µg/mL

SMILES: O=c1[nH]c(=O)n([C@H]2C[C@H](O)[C@@H](CO)O2)cc1/C=C/Br [BVDU, (E)-5-(2-bromovinyl)-2-deoxyuridines]
- effect on resistance development/adaptation to Kanamycin ([2]; BVDU 1 μg/ml in presence of Kanamycin 64 μg/ml, E. coli J53 (RP4)): inhibition of this resistance development/adaptation
- effect on adaptation to Amikacin ([2]; BVDU 2 μg/ml in presence of Amikacin 0.25 μg/ml, E coli J53 (RP4)): inhibition of this adaptation
- growth of aminoglycoside/BVDU-pretreated E. coli strains in the absence of the antibiotic ([3]; BVDU 1 or 2 μg/ml in the preculture or/and 0.04–0.05 μg/ml in the MIC batches): sustained restriction of the growth
- effect of BVDU without pretreatment (antibiotic+BVDU) ([3]; no pretreatment): no effect
- toxicity of BVDU without pretreatment ([3]; no pretreatment): not toxic
- cell division rate relative to control level (Leidshmania donovanii; [4]): never reached the control level
- resistance development to MTX treatment (Leidshmania donovanii; [4]): no resistance to the treatment

SMILES: NCC[C@H](O)C(=O)N[C@@H]1C[C@H](N)[C@@H](O[C@H]2O[C@H](CN)[C@@H](O)[C@H](O)[C@H]2O)[C@H](O)[C@H]1O[C@H]1O[C@H](CO)[C@@H](O)[C@H](N)[C@H]1O [Amikacin]
- adaptation, i.e. resistance development, to the antibiotic ([2]; Amikacin 0.25 μg/ml alone, E coli J53 (RP4)): slow adaptation, i.e. resistance development
- MIC ([1]; strain which had become resistant to 0.25 μg/ml Amikacin, read-out: MIC of Amikacin): 2 µg/mL
- Amikacin concentration from which growth inhibition was shown ([1]; strain grown in the presence of 2 μg/ml BVDU (no resistance to 0.25 μg/ml Amikacin)): 0.125 µg/mL
- increase of Amikacin MIC relative to the starter strain ([1]; strain which had become resistant to 0.25 μg/ml Amikacin): eight times increased

SMILES: CN(Cc1cnc2nc(N)nc(N)c2n1)c1ccc(C(=O)N[C@@H](CCC(=O)O)C(=O)O)cc1 [MTX, Methotrexate]
- passages until cell division rate stabilised to the control level (Leidshmania donovanii; MTX alone, steps 5 to 10, 10 to 50, 50 to 100 μm MTX): approximately three to four passages
